Measured values from patent US20260158102A1, “CYCLIC PEPTIDE DERIVATIVE COMPOSITION FOR TREATING OR PREVENTING NEUROPATHIC PAIN AND/OR INFLAMMATORY PAIN” (DKS Co. Ltd., priority 2022, published 2026).

Assay: Observation of general condition in rat STZ-induced diabetes model
Assay type: in vivo
Conditions: number of animals, 10 per group
Experimental: Compound 9 (50 mg/mL) was diluted with water for injection to obtain a 1 mg/mL administration specimen. For the specimens to be administered at 0.1 mg/mL and 0.01 mg/mL, the specimen to be administered at 1 mg/mL was diluted stepwise with water for injection. Each administration specimen was divided into PP disposable tubes every day and stored in a storehouse (freezer: MDF-MU339H-PJ, PHC Corporation) under the condition of freezing (−30° C. to −20° C., measured value: −26.4 to −24.5° C.). Preparation was performed on the day before the start of administration.
Water for injection was added to and dissolved in Pregabalin taken out from the capsule to obtain 2 mg/mL. It was prepared before use.
• Animal species: rat (SPF) • Strain: Crl: CD (SD) • Date of animal acquisition, gender, age in weeks, number of animals acquired, and weight range after 1 day of acquisition • First and second courses: Apr. 6, 2022, male, 7 weeks old, 35 animals, 217 to 237 g • Third and fourth courses: Apr. 13, 2022, male, 7 weeks old, 35 animals, 216 to 235 g • Source: […].
• Dose volume: calculated at 2 mL/kg based on the body weight on the day of administration. • Number of times of administration: once • Day of administration: 7 days before the day of starting administration of the test substance.
• Dose volume: calculated at 1 mL/kg based on the body weight on the day of administration. • Number of times of administration: 9 times • Interval of administration: once every 3 days (evaluation was performed on the day after administration) • Day of starting administration: day 8 of STZ administration (day of STZ administration is counted as day 1).
• Dose volume: calculated at 10 mL/kg based on the body weight on the day of administration. • Number of times of administration: Administration was performed once on the day of evaluation of neuropathic pain, twice in total, and on the other days of administration, a vehicle for a control substance (water for injection) was orally administered.
• Observation of general condition • Observation was performed once a day.

Measured: general condition

CC[C@@]1(C)Oc2cc(ccc2O)C[C@H](NC)C(=O)N[C@@H](C(C)C)C(=O)N[C@@H]1C(=O)N[C@@H](CC(=O)O)C(=O)O [Compound 9]
10: 0.1 mg/kg iv, day 9 of STZ administration | 0.1 mg/kg iv, day 10 of STZ administration | 0.1 mg/kg iv, day 11 of STZ administration | 0.1 mg/kg iv, day 12 of STZ administration | 0.1 mg/kg iv, day 13 of STZ administration | 0.1 mg/kg iv, day 14 of STZ administration | 0.1 mg/kg iv, day 15 of STZ administration | 0.1 mg/kg iv, day 16 of STZ administration | 0.1 mg/kg iv, day 17 of STZ administration | 0.1 mg/kg iv, day 18 of STZ administration | 0.1 mg/kg iv, day 19 of STZ administration | 0.1 mg/kg iv, day 20 of STZ administration | 0.1 mg/kg iv, day 21 of STZ administration | 0.1 mg/kg iv, day 22 of STZ administration | 0.1 mg/kg iv, day 23 of STZ administration | 0.1 mg/kg iv, day 24 of STZ administration | 0.1 mg/kg iv, day 25 of STZ administration | 0.1 mg/kg iv, day 26 of STZ administration | 0.1 mg/kg iv, day 27 of STZ administration | 0.1 mg/kg iv, day 28 of STZ administration | 0.1 mg/kg iv, day 29 of STZ administration | 0.1 mg/kg iv, day 30 of STZ administration | 0.1 mg/kg iv, day 31 of STZ administration | 0.1 mg/kg iv, day 32 of STZ administration | 0.1 mg/kg iv, day 33 of STZ administration | 0.1 mg/kg iv, day 34 of STZ administration | 0.1 mg/kg iv, day 35 of STZ administration | 1 mg/kg iv, day 1 of STZ administration | 1 mg/kg iv, day 2 of STZ administration | 1 mg/kg iv, day 3 of STZ administration | 1 mg/kg iv, day 4 of STZ administration | 1 mg/kg iv, day 5 of STZ administration | 1 mg/kg iv, day 6 of STZ administration | 1 mg/kg iv, day 7 of STZ administration | 1 mg/kg iv, day 8 of STZ administration | 1 mg/kg iv, day 9 of STZ administration | 1 mg/kg iv, day 10 of STZ administration | 1 mg/kg iv, day 11 of STZ administration | 1 mg/kg iv, day 12 of STZ administration | 1 mg/kg iv, day 13 of STZ administration | 1 mg/kg iv, day 14 of STZ administration | 1 mg/kg iv, day 15 of STZ administration | 1 mg/kg iv, day 16 of STZ administration | 1 mg/kg iv, day 17 of STZ administration | 1 mg/kg iv, day 18 of STZ administration | 1 mg/kg iv, day 19 of STZ administration | 1 mg/kg iv, day 20 of STZ administration | 1 mg/kg iv, day 21 of STZ administration | 1 mg/kg iv, day 22 of STZ administration | 1 mg/kg iv, day 28 of STZ administration | 1 mg/kg iv, day 29 of STZ administration | 1 mg/kg iv, day 30 of STZ administration | 1 mg/kg iv, day 31 of STZ administration | 1 mg/kg iv, day 32 of STZ administration | 1 mg/kg iv, day 33 of STZ administration | 1 mg/kg iv, day 34 of STZ administration | 1 mg/kg iv, day 35 of STZ administration
